US9260468B1, “2,3′-anhydro-2′-deoxy-5-fluorouridine derivatives with cytotoxic activity, a manufacturing process and application” (ADAM MICKIEWICZ UNIVERSITY, priority 2014, dated 2016)
Where “and” joins values, the source holds several entries; their conditions need not be identical. Equal entries are not always repeated. Where two headings read alike, the source gives them in different places.

Tests used:
[1] = test system: MCF-7 (breast cancer); experiment: Cytotoxicity test with sulphorhodamine B, MCF-7 line; assay type: cell-based; conditions: for SI, MCF-7: SI = IC50 normal cell line (fibroblasts) / IC50 MCF-7
Experimental: (§1) Cytotoxic activity tests were performed using the following cancer cell lines: MCF-7 (breast cancer), HeLa (cervical cancer) A549 (lung cancer) and KB (nasopharynx cancer) and normal cells (human dermal fibroblasts, HDF) obtained from ECACC (European Collection of Cell Cultures).
(§2) Cytotoxicity tests were carried out using a standard procedure with sulphorhodamine B. They involved incubation of the cancer cell lines in the logarithmic growth phase for 72 hours with the compound tested and, subsequently, spectrophotometric determination of the degree of cell growth inhibition using adsorption of a dye (sulphorhodamine B) which binds cellular proteins. The determination was carried out according to a procedure reported in: Vichai, V., Kirtikara, K. Nature Protocols, 2006, 1, 1112.
(§3) Cells of the cell line tested in the logarithmic growth phase were seeded onto 24-well plates in a quantity of 20.000 cells/2 mL of the growth medium per well and, subsequently, incubated in an incubator at 37° C., in the 5% CO2 atmosphere for 24 hours.
(§4) Solutions of the test compounds were prepared in DMSO in the following concentrations: 0.05; 0.1; 0.5; 1; 5; 10; 50; 100; 500 μM.
(§5) The cells of the lines tested were treated with the solutions of the test compounds in a laminar-flow chamber which ensured sterile working conditions according to the following procedure: the first three wells were used as a control: they contained 20 μL of DMSO only; successive solutions of the test compound were added to subsequent wells (20 μL), starting with the lowest concentration (three wells for each concentration level). Subsequently, the plates were placed in an incubator at 37° C. for 72 hours. After the end of incubation, the adhered cells were fixed by adding 500 μL of cold (4° C.) 50% trichloroacetic acid (TCA) and incubated at 4° C. for 1 hour. Subsequently, each well was rinsed with sterile water and dried. The rinsing was repeated five times. The fixed cells were stained for 30 minutes by adding 500 μL of 0.4% dye solution (sulphorhodamine B) dissolved in 1% acetic acid. Any unbound dye was removed by decanting it from the plate, and the cells were washed 4 times with 1% acetic acid. Subsequently, the plates were dried in air for approx. 5 minutes. Bounded dye was dissolved by adding 1500 μL of 10 mM Tris-base buffer (trishydroxymethylaminomethane) to each well and shaken using an orbital shaker for 5 minutes. Subsequently, 200 μL of solution from each well was transferred to each of two wells on a new 96-well plate and absorption of the solutions was determined spectrophotometrically at a wavelength of 490-530 nm using a plate reader.
(§6) Cytotoxicity tests for the other compounds and cell lines were performed following an identical procedure.
(§7) The MCF-7 line was grown in Dulbecco's Modified Eagle's Medium (DME) from Sigma (cat. no. D5796), while the HeLa, A549 and KB lines were grown in RPMI-1640 Medium from Sigma (cat. no. R8758).
(§8) IC50 values, being concentration of a compound needed to obtain 50% inhibition of cell growth, were determined for all the derivatives tested.

[2] = test system: HeLa (cervical cancer); experiment: Cytotoxicity test with sulphorhodamine B, HeLa line; assay type: cell-based; conditions: for SI, HeLa: SI = IC50 normal cell line (fibroblasts) / IC50 HeLa
Experimental: as §1, §2, §3, §4, §5, §6, §7, §8

[3] = test system: A549 (lung cancer); experiment: Cytotoxicity test with sulphorhodamine B, A549 line; assay type: cell-based; conditions: for IC50: Homo sapiens
Experimental: as §1, §2, §3, §4, §5, §6, §7, §8

[4] = test system: KB (nasopharynx cancer); experiment: Cytotoxicity test with sulphorhodamine B, KB line; assay type: cell-based; conditions: for SI, KB: SI = IC50 normal cell line (fibroblasts) / IC50 KB
Experimental: as §1, §2, §3, §4, §5, §6, §7, §8

[5] = Cytotoxicity test with sulphorhodamine B, normal fibroblasts; assay type: cell-based; conditions: human, normal human dermal fibroblasts (HDF), normal cells, 72 hours incubation, read-out: Cytotoxic activity, IC50, Fibroblasts (HDF)
Experimental: as §1, §2, §3
Solutions of the test compounds were prepared in DMSO in the following concentrations: 0.05; 0.1; 0.5; 1; 5; 10; 50; 100; 500 μM. […]

[6] = test system: HBV; conditions: literature (Srivastav et al. 2010); cited from earlier work
[7] = test system: Huh-7 line; conditions: literature (Srivastav et al. 2010); cited from earlier work
[8] = Homo sapiens, MCF7, 72 h, read-out: Cytotoxic activity, IC50, MCF-7 (breast cancer)
[9] = Homo sapiens, MCF7, read-out: Cytotoxic activity class, MCF-7 (breast cancer)
[10] = Homo sapiens, HeLa, 72 h, read-out: Cytotoxic activity, IC50, HeLa (cervical cancer)
[11] = Homo sapiens, HeLa, read-out: Cytotoxic activity class, HeLa (cervical cancer)
[12] = 72 h, read-out: Cytotoxic activity, IC50, KB (nasopharynx cancer)
[13] = read-out: Cytotoxic activity class, KB (nasopharynx cancer)
[14] = 72 hours incubation, sulphorhodamine B, average of three determinations
[15] = class A/MA/NA by IC50 in μg/mL, read-out: Cytotoxic activity class, KB (nasopharynx cancer)
[16] = Homo sapiens, MCF7, class A/MA/NA by IC50 in μg/mL, read-out: Cytotoxic activity class, MCF-7 (breast cancer)
[17] = Homo sapiens, HeLa, class A/MA/NA by IC50 in μg/mL, read-out: Cytotoxic activity class, HeLa (cervical cancer)
[18] = A549, class A/MA/NA by IC50 in μg/mL, read-out: Cytotoxic activity class, A549 (lung cancer)

## O=c1nc2n(cc1F)C1CC(O2)C(COP(=O)(NCC(F)(F)F)Oc2ccc(Cl)cc2)O1 (centres unmarked) [FEAdFU, 2,3′-anhydro-2′-deoxy-5-fluorouridine 5′-[N-(2,2,2-trifluoroethyl)-O-(4-chlorophenyl)]phosphate]
[1]; [8]
  IC50: 240 nM and 0.12 µg/mL
[1]; [9]
  IC50: < 4 µg/mL
[1]
  SI, MCF-7: 50
[1]; versus 5FU
  fold higher activity than 5FU, MCF-7: more than 75 fold
[1]; versus 5FdU
  fold higher activity than 5FdU, MCF-7: more than 47 fold
[1]; versus AdFU
  fold higher activity than AdFU, MCF-7: 67 fold
[2]; [10]
  IC50: 360 nM and 0.18 µg/mL
[2]; [11]
  IC50: < 4 µg/mL
[2]
  SI, HeLa: 33 and 33.3
[2]; versus 5FU
  fold higher cytotoxicity than 5FU, HeLa: more than 58 fold
[2]; versus 5FdU
  fold higher cytotoxicity than 5FdU, HeLa: more than 36 fold
[2]; versus AdFU
  fold higher cytotoxicity than AdFU, HeLa: more than 133 fold
[3]; A549, 72 h, read-out: Cytotoxic activity, IC50, A549 (lung cancer)
  IC50: 400 nM and 0.2 µg/mL
[3]; A549, read-out: Cytotoxic activity class, A549 (lung cancer)
  IC50: < 4 µg/mL
[3]; SI = IC50 normal cell line (fibroblasts) / IC50 A549
  SI, A549: 30
[3]; versus 5FU
  fold higher cytotoxicity than 5FU, A549: more than 53 fold
[3]; versus 5FdU
  fold higher cytotoxicity than 5FdU, A549: more than 33 fold
[4]; [12]
  IC50: 400 nM and 0.2 µg/mL
[4]
  SI, KB: 30
[4]; [13]
  IC50: < 4 µg/mL
[4]; versus 5FU
  fold higher cytotoxicity than 5FU, KB: more than 55 fold
[4]; versus 5FdU
  fold higher cytotoxicity than 5FdU, KB: more than 34 fold
[4]; versus AdFU
  fold higher cytotoxicity than AdFU, KB: 120 fold
[5]
  IC50 at 72 h: 6 µg/mL and 12 µM

## O=c1nc2n(cc1F)[C@H]1C[C@@H](O2)[C@@H](CO)O1 [2,3′-anhydro-2′-deoxy-5-fluorouridine]
[1]; [14]
  Cytotoxic activity, IC50, MCF-7 (breast cancer): 3.7 µg/mL
[1]; 72 hours incubation, sulphorhodamine B, read-out: Cytotoxic activity, IC50, MCF-7 (breast cancer)
  IC50: 16.2 µM
[1]; class A/MA/NA by IC50 in μg/mL
  Cytotoxic activity class, MCF-7 (breast cancer): A (IC50<4 μg/mL are generally assumed as active)
[2]; [14]
  Cytotoxic activity, IC50, HeLa (cervical cancer): 11.0 µg/mL
[2]; 72 hours incubation, sulphorhodamine B, read-out: Cytotoxic activity, IC50, HeLa (cervical cancer)
  IC50: 48.2 µM
[2]; class A/MA/NA by IC50 in μg/mL
  Cytotoxic activity class, HeLa (cervical cancer): MA (IC50 range of 4-30 μg/mL are considered medium active)
[4]; [14]
  Cytotoxic activity, IC50, KB (nasopharynx cancer): 11.0 µg/mL
[4]; 72 hours incubation, sulphorhodamine B, read-out: Cytotoxic activity, IC50, KB (nasopharynx cancer)
  IC50: 48.2 µM
[4]; [15]
  IC50: 4 to 30 µg/mL
[6]
  antiviral activity against HBV: weak antiviral activity
[7]
  cytotoxic activity against the Huh-7 line, IC50: > 200 µg/mL

## O=c1[nH]c(=O)n([C@H]2C[C@H](O)[C@@H](CO)O2)cc1F [5-fluoro-2′-deoxyuridine, reference compound]
[1]; [16]
  IC50: < 4 µg/mL
[2]; [17]
  IC50: < 4 µg/mL
[3]; [18]
  IC50: < 4 µg/mL
[4]; [15]
  IC50: < 4 µg/mL

## O=c1[nH]cc(F)c(=O)[nH]1 [5-fluorouracil, reference compound]
[1]; [16]
  IC50: < 4 µg/mL
[2]; [17]
  IC50: < 4 µg/mL
[3]; [18]
  IC50: < 4 µg/mL
[4]; [15]
  IC50: < 4 µg/mL

## O=c1nc2n(cc1F)C1CC(O2)C(COP(=O)(NCCF)Oc2ccc(Cl)cc2)O1 (centres unmarked) [MFEAdFU]
[1]; [8]
  IC50: 11.8 µg/mL and 25.4 µM
[1]; [9]
  IC50: 4 to 30 µg/mL
[1]
  SI, MCF-7: 3.7
[2]; [10]
  IC50: 16 µg/mL and 34.5 µM
[2]; [11]
  IC50: 4 to 30 µg/mL
[2]
  SI, HeLa: 2.7
[4]; [12]
  IC50: 12.2 µg/mL and 26.3 µM
[4]
  SI, KB: 3.5
[4]; [13]
  IC50: 4 to 30 µg/mL
[5]
  IC50 at 72 h: 43.1 µg/mL and 92.9 µM
